In ChEMBL document CHEMBL1201862, “PubChem BioAssay data set” (2004):
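Results reflect a 48-hour exposure of cells in 96-well plates to compound at five concentrations. Here, GI50 denotes the concentration required for 50% inhibition of growth.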 Active and inactive are the calls of the source. No stated cut-off is given here; in the data, active = GI50 up to about 1.1 µM and inactive = higher.

How the values were obtained:
Assay in all cases: NCI tumour cell line growth inhibition, 48 h
[1] = tested on: A498
[2] = tested on: ACHN
[3] = tested on: COLO 205
[4] = tested on: DU-145
[5] = tested on: HCT-116
[6] = tested on: Hs-578T
[7] = tested on: IGROV-1
[8] = tested on: K562
[9] = tested on: MDA-MB-231
[10] = tested on: Malme-3M
[11] = tested on: NCI-H23
[12] = tested on: NCI-H460
[13] = tested on: NCI/ADR-RES
[14] = tested on: OVCAR-5
[15] = tested on: PC-3
[16] = tested on: SF-268
[17] = tested on: SK-MEL-5
[18] = tested on: T47D
[19] = tested on: CAKI-1

Measured: GI50

O=C1NN=C(c2ccc(Cl)cc2)CC1C1C(=O)N(c2ccccc2)N=C1c1ccccc1 (configuration not stated)
inactive: [1] 26.2 µM | [2] 29.2 µM | [3] 41.8 µM | [4] 53.7 µM | [5] 19.6 µM | [6] 18.8 µM | [7] 35.7 µM | [8] 30 µM | [9] 35.9 µM | [10] 30.7 µM | [11] 23.3 µM | [12] 28.1 µM | [13] 40.6 µM | [14] 28.9 µM | [15] 22.2 µM | [16] 48.2 µM | [17] > 10 µM | [18] 22.1 µM

CC(C)N/C(=N\C#N)NS(=O)(=O)c1cnccc1NC1CCCCCCC1
inactive: [1] > 100 µM | [2] > 100 µM | [19] > 100 µM | [3] > 100 µM | [4] > 100 µM | [5] > 100 µM | [6] > 100 µM | [7] > 100 µM | [8] > 100 µM | [9] > 100 µM | [10] > 100 µM | [11] > 100 µM | [13] > 100 µM | [14] > 100 µM | [15] > 100 µM | [16] > 100 µM | [17] > 100 µM | [18] > 100 µM

Cc1ccc(S(=O)(=O)Nc2ccccc2C=O)cc1
inactive: [1] 30 µM | [2] 17.7 µM | [19] 23.9 µM | [3] 16.9 µM | [4] 26.1 µM | [5] 14.8 µM | [6] 15.8 µM | [7] 17.4 µM | [8] 8.15 µM | [9] 15.1 µM | [10] 14.7 µM | [11] 14.7 µM | [12] 19.8 µM | [13] 14.6 µM | [14] 25.1 µM | [15] 11.4 µM | [17] 11.9 µM | [18] 14.9 µM

CC(C)(C)c1cc(C2=NNC(c3ccccc3)C2)cc(C(C)(C)C)c1O (configuration not stated)
inactive: [1] 15.3 µM | [2] 16.3 µM | [19] 12.9 µM | [3] 17.5 µM | [4] 15.5 µM | [5] 14.2 µM | [6] 19.1 µM | [7] 15.7 µM | [9] 14.2 µM | [10] 17.9 µM | [11] 17.2 µM | [12] 15.4 µM | [13] 17 µM | [14] 21.1 µM | [15] 14.6 µM | [16] 17 µM | [17] 11 µM | [18] 10.2 µM

O=C1Nc2ccccc2S/C1=C\c1ccccc1C(F)(F)F
inactive: [1] > 10 µM | [2] 15.1 µM | [19] 68.9 µM | [3] > 100 µM | [4] > 100 µM | [5] > 100 µM | [6] 51.9 µM | [7] 29 µM | [9] > 100 µM | [10] > 100 µM | [12] 94.6 µM | [13] > 100 µM | [14] > 100 µM | [15] > 100 µM | [16] > 100 µM | [17] > 100 µM | [18] > 100 µM

N#CC(C#N)/N=N/c1ccc(-c2nc3ccccc3o2)cc1
inactive: [1] 13.9 µM | [2] 12.9 µM | [3] 11.7 µM | [4] 13.3 µM | [5] 5.55 µM | [6] 42 µM | [7] 19.4 µM | [8] 8.61 µM | [9] 17.8 µM | [10] 13.3 µM | [11] 10.1 µM | [12] 13.9 µM | [13] 17.5 µM | [14] 17.4 µM | [15] 8 µM | [16] 27.5 µM | [17] 2.05 µM | [18] 4.32 µM

COC(=O)c1cc(C)ccc1CC(Cc1ccccc1C)C(=O)OC (configuration not stated)
inactive: [1] 60.4 µM | [2] 75.2 µM | [19] 32.8 µM | [3] 46.2 µM | [4] > 100 µM | [5] 14.7 µM | [6] 27.9 µM | [7] 45.9 µM | [8] 10.6 µM | [9] 59.6 µM | [10] 23.2 µM | [11] 40.1 µM | [12] 78 µM | [13] 32.6 µM | [15] 55.2 µM | [16] 61.2 µM | [17] 14.1 µM | [18] 26 µM

Cc1sc2nc3n(c(=O)c2c1C)N=C(c1ccc(Cl)cc1)CS3
inactive: [1] > 100 µM | [2] > 100 µM | [19] > 100 µM | [3] > 100 µM | [4] > 100 µM | [5] > 100 µM | [6] 82.6 µM | [8] > 100 µM | [9] > 100 µM | [10] > 100 µM | [11] > 100 µM | [12] > 100 µM | [13] > 100 µM | [14] > 100 µM | [15] > 100 µM | [16] > 100 µM | [17] > 100 µM | [18] > 100 µM

COc1cccc2cc(C(=O)Nc3ccccc3)c(=N)oc12
inactive: [1] > 100 µM | [2] > 100 µM | [3] > 100 µM | [4] > 100 µM | [5] 24.3 µM | [6] 10.4 µM | [7] 49.5 µM | [8] > 100 µM | [9] 13 µM | [10] > 100 µM | [11] > 69.2 µM | [12] > 100 µM | [13] > 100 µM | [14] > 100 µM | [15] > 100 µM | [16] > 85.9 µM | [17] > 81.3 µM | [18] 6.01 µM

O=C1CSC(c2ccc([N+](=O)[O-])cc2)N1c1ccc(-c2ccc(-n3c(-c4ccccc4)nc4ccccc4c3=O)cc2)cc1 (configuration not stated)
inactive: [1] > 100 µM | [2] 56.5 µM | [19] > 100 µM | [3] 43.5 µM | [4] > 100 µM | [5] 60.5 µM | [6] > 100 µM | [8] 34.4 µM | [9] 49.8 µM | [10] 58.1 µM | [11] > 100 µM | [12] 38.4 µM | [13] 43.9 µM | [14] > 100 µM | [15] 36.4 µM | [16] > 100 µM | [17] 17.3 µM | [18] 21.5 µM

CCCCCCCCCCCCOC1C(COCCN2CCCC2)OC2OC(C)(C)OC21 (configuration not stated)
inactive: [1] 14 µM | [2] 3.35 µM | [19] 1.6 µM | [3] 1.82 µM | [4] 10.9 µM | [5] 1.75 µM | [6] 1.76 µM | [7] 1.72 µM | [8] 1.23 µM | [9] 1.5 µM | [10] 1.92 µM | [11] 1.72 µM | [13] 1.73 µM | [14] 1.51 µM | [15] 1.65 µM | [16] 2 µM | [17] 1.6 µM | [18] 2.07 µM
